Test results as given in ChEMBL document CHEMBL5291721, “A preclinical secondary pharmacology resource illuminates target-adverse drug reaction associations of marketed drugs” (Nat Commun, 2023).

Assays:
[1] = biological target: T1, Alpha-2A adrenergic receptor (Homo sapiens, UniProt P08913); assay type: functional, cell-based
T1 sequence (P08913 whole entry): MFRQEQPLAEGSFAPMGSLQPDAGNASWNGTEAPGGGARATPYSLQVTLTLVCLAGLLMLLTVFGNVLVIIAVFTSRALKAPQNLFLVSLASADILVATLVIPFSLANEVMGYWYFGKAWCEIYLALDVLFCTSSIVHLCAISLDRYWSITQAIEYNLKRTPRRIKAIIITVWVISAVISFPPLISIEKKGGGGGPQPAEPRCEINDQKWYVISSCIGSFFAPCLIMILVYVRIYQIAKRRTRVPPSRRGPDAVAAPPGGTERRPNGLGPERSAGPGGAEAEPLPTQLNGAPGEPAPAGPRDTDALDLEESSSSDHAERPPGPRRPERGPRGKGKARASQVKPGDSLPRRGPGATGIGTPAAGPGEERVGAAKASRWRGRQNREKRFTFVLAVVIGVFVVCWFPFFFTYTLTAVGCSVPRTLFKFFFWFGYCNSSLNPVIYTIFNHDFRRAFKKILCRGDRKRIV

[2] = biological target: T2, Alpha-2B adrenergic receptor (Homo sapiens, UniProt P18089)
T2 sequence (P18089 whole entry): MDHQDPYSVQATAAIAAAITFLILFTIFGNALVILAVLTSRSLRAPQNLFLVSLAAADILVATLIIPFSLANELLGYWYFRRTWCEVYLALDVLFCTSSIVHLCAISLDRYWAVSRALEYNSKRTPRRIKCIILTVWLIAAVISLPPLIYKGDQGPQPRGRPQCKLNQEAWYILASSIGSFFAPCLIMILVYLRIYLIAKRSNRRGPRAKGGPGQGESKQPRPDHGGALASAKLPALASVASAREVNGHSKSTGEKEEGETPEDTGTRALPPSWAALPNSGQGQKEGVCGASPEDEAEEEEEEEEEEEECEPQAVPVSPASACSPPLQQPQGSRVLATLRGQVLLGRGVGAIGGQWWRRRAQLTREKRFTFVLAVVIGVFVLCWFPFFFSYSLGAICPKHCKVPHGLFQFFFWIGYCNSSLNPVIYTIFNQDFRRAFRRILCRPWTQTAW

[3] = biological target: Vasopressin V2 receptor (Homo sapiens, UniProt P30518)
[4] = biological target: Gamma-aminobutyric acid receptor subunit alpha-1 (Rattus norvegicus, UniProt P62813)
Gamma-aminobutyric acid receptor subunit alpha-1, sequence (P62813 whole entry): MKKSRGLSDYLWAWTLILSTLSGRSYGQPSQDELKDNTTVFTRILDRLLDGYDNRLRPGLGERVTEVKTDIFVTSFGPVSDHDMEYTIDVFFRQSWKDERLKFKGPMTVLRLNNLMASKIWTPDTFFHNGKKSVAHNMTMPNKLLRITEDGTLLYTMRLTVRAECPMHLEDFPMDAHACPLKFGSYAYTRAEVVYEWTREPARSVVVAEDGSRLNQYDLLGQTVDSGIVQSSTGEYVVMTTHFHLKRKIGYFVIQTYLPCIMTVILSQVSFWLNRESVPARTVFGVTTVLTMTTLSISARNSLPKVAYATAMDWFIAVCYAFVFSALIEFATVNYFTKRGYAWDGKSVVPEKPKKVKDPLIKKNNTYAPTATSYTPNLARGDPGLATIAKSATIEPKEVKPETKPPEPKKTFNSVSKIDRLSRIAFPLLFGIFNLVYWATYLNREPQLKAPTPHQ

[5] = biological target: Motilin receptor (Homo sapiens, UniProt O43193)
Motilin receptor, sequence (O43193 whole entry): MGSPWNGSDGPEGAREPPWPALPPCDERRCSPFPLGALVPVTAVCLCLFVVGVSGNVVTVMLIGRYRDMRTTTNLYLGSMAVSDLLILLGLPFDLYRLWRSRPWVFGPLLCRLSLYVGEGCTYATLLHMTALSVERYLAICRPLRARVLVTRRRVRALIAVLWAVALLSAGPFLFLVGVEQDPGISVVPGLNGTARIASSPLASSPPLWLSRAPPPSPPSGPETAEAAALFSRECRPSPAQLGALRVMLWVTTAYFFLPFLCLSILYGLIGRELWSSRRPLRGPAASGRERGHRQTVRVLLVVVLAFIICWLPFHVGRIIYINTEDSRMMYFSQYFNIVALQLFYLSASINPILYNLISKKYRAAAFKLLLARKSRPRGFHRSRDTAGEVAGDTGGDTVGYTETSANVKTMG

[6] = biological target: 3',5'-cyclic-AMP phosphodiesterase 4D (Homo sapiens, UniProt Q08499); assay type: functional
3',5'-cyclic-AMP phosphodiesterase 4D, sequence (Q08499 whole entry): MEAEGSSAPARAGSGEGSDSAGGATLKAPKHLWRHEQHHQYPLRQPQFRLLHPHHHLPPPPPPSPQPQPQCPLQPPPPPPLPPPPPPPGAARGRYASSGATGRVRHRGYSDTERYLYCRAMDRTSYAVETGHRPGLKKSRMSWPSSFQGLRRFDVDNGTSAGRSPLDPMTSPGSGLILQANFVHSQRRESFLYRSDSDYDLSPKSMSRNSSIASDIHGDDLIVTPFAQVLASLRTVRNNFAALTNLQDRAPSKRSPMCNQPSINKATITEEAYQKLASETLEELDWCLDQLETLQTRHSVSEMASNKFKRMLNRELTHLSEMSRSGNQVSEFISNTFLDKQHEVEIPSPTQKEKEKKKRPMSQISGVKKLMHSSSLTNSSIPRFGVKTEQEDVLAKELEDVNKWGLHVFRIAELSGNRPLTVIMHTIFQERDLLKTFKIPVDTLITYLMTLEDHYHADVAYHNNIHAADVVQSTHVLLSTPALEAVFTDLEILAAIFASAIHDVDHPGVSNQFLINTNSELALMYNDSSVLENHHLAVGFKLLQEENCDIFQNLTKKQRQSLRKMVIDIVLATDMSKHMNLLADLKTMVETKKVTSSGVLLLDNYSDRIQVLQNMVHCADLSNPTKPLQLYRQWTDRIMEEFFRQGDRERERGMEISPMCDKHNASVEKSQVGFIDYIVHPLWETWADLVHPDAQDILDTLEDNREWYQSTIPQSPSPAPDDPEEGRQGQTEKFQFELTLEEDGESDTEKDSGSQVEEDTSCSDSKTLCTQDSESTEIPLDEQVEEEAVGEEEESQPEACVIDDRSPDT

[7] = biological target: T3, Progesterone receptor (Homo sapiens, UniProt P06401); assay type: functional
T3 sequence (P06401 whole entry): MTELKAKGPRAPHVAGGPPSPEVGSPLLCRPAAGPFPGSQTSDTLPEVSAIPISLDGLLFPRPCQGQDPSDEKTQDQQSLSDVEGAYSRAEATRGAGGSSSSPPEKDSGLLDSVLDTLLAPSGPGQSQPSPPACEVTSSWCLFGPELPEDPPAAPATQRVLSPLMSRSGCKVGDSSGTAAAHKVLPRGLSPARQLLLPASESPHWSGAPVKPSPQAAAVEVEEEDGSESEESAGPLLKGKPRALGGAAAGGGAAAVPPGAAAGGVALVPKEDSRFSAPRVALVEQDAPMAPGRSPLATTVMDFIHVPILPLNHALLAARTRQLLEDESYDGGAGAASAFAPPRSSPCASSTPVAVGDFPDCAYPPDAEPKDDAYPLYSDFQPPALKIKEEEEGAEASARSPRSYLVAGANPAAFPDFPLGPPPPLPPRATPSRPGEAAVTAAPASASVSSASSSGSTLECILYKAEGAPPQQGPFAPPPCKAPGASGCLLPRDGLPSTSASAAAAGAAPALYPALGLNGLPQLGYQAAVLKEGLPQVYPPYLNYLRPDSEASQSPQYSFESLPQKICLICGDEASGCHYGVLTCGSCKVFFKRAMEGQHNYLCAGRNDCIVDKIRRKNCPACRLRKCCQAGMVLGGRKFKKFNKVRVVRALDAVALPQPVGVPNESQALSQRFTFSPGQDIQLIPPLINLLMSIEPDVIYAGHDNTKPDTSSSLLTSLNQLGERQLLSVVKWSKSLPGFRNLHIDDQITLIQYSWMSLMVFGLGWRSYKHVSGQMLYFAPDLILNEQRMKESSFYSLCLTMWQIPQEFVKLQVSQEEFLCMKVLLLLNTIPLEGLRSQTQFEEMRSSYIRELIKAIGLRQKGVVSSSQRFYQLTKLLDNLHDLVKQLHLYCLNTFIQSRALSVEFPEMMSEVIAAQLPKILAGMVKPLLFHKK

[8] = biological target: T4, Amine oxidase [flavin-containing] A (Homo sapiens, UniProt P21397); assay type: functional
T4 sequence (P21397 whole entry): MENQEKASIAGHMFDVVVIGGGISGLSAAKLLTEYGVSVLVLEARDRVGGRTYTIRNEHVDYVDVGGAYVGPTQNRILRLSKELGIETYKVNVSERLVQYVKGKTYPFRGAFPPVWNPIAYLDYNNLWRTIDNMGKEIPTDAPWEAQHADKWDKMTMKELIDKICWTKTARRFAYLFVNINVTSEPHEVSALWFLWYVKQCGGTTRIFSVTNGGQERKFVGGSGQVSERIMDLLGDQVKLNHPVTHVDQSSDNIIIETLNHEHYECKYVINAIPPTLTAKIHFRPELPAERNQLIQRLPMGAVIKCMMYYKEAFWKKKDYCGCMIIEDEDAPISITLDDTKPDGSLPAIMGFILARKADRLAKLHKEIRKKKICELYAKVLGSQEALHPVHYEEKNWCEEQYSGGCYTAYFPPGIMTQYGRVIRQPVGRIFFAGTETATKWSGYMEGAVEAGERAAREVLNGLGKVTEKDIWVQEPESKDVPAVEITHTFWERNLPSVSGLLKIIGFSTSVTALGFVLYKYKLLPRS

[9] = biological target: Histamine H3 receptor (Homo sapiens, UniProt Q9Y5N1)
Histamine H3 receptor, sequence (Q9Y5N1 whole entry): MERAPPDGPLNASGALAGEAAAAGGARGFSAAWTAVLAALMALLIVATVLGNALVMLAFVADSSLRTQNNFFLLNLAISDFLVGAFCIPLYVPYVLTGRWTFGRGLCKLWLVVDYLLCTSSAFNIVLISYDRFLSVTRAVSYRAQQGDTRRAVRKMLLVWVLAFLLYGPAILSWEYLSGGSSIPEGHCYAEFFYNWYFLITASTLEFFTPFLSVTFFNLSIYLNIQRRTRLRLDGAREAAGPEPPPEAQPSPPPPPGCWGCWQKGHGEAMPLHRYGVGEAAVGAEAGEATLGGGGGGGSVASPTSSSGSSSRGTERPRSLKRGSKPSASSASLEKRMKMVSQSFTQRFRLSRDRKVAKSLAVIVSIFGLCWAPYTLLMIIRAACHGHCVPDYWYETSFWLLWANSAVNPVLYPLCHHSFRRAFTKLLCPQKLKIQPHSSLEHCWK

[10] = biological target: T5, Adenosine receptor A1 (Homo sapiens, UniProt P30542)
T5 sequence (P30542 whole entry): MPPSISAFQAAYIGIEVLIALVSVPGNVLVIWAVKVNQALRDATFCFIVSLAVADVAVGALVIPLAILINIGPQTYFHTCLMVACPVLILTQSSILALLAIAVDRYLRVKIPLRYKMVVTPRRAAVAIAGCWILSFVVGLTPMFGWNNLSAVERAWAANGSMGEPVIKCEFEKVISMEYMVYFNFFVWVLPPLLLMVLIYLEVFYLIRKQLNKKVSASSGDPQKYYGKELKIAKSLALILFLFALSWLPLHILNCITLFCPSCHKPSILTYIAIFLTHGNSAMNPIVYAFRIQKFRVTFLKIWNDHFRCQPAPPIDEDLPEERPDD

Measured: AC50
Further: assay procedure not described here.

HYDROXOCOBALAMIN
not listed: [10]
> 30 µM: all other assays above

Nc1ccc(S(N)(=O)=O)cc1 [SULFANILAMIDE]
> 30 µM: [10]
